The mortality is the share of the test organisms that died.

What all share (format): in vivo
Series [1] concerns Cabbage Looper (Trichoplusia ni, TRIPNI). Description: Bioassay on Cabbage Looper (CL), 128-well diet tray assay. Particulars: 168 h, 50 μg/cm^2 on artificial diet, second instar larvae, five to seven days, 25° C., read-out: CL % Control (or Mortality) rating. A digest of the protocol:
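Diet-tray test with one to five second-instar larvae per well on artificial diet treated with 50 μg/cm^2 compound (in 90:10 acetone-water), dried, eight wells per molecule. Held 25 °C, 14:10 light-dark for five to seven days; percent mortality averaged over the eight wells.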

Series [2] has as its system Beet Armyworm (Spodoptera exigua, LAPHEG). Description: Bioassay on Beet Armyworm (BAW), 128-well diet tray assay. Particulars: 168 h, 50 μg/cm^2 on artificial diet, second instar larvae, five to seven days, 25° C., read-out: BAW % Control (or Mortality) rating. Put shortly:
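Second instar larvae, one to five per well, placed on artificial diet treated with 50 μg/cm^2 compound (in 90:10 acetone-water) and dried; eight wells per compound. Held at 25° C, 14:10 light-dark, five to seven days. Percent mortality recorded per well and averaged.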

Series [3] concerns Green Peach Aphid (Myzus persicae, MYZUPE). Put plainly: Bioassay on Green Peach Aphid (GPA), foliar spray on cabbage seedlings. Particulars: 72 h, 200 ppm foliar spray on cabbage seedlings, three days, Abbott corrected % control, read-out: GPA % Control (or Mortality) rating. The method, then:
Example B: Bioassays on Green Peach Aphid (Myzus persicae, MYZUPE) (“GPA”)
Certain molecules disclosed in this document were tested against GPA using procedures described in the following example. In the reporting of the results, the “GPA Rating Table” was used (See Table Section).
Cabbage seedlings grown in 3-inch pots, with 2-3 small (3-5 cm) true leaves, were used as test substrate. The seedlings were infested with 20-50 GPA (wingless adult and nymph stages) one day prior to chemical application. Four pots with individual seedlings were used for each treatment. Test molecules (2 mg) were dissolved in 2 mL of acetone/methanol (1:1) solvent, forming stock solutions of 1000 ppm test molecule. The stock solutions were diluted 5× with 0.025% Tween 20 in water to obtain the solution at 200 ppm test molecule. A hand-held aspirator-type sprayer was used for spraying a solution to both sides of […] leaves until runoff. Reference plants (solvent check) were sprayed with the diluent only containing 20% by volume of acetone/methanol (1:1) solvent. Treated plants were held in a holding room for three days at approximately 25° C. and ambient relative humidity (RH) prior to grading. Evaluation was conducted by counting the number of live aphids per plant under a microscope. Percent Control was measured by using Abbott's correction formula (W. S. Abbott, “A Method of Computing the Effectiveness of an Insecticide” J. Econ. Entomol. 18 (1925), pp. 265-267) as follows. Corrected % Control=100*(X−Y)/X • where • X=No. of live aphids on solvent check plants and • Y=No. of live aphids on treated plants
The results are indicated in the table entitled “Table ABC: Biological Results” (See Table Section).

Series [4] has as its system Yellow Fever Mosquito (Aedes aegypti, AEDSAE). Put plainly: Bioassay on Yellow Fever Mosquito (YFM) larvae, 96-well plate. Conditions: about 1 day-old larvae, 4000 ppm DMSO master plate diluted, graded after 3 days. Put shortly:
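Compounds from 4000 ppm DMSO master stocks, diluted in 90:10 water:acetone, dispensed into wells and infested with about 1-day-old Aedes aegypti larvae in liver-powder water. Six replicate plates, covered and held at room temperature for 3 days, then each well scored for mortality.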

Series [5] concerns Corn Earworm (Helicoverpa zea, HELIZE). Put plainly: Bioassay on Corn Earworm (CEW), 128-well diet tray assay. Conditions: 168 h, 50 μg/cm^2 on artificial diet, second instar larvae, five to seven days, 25° C., read-out: CEW % Control (or Mortality) rating. As for the experimental part: Example A: Bioassays on Beet Armyworm (Spodoptera exigua, LAPHEG) (“BAW”), Corn Earworm (Helicoverpa zea, HELIZE) (“CEW”), and Cabbage Looper (Trichoplusia ni, TRIPNI) (“CL”)
Certain molecules disclosed in this document were tested against BAW, CEW, and CL using procedures described in the following examples. In the reporting of the results, the “BAW, CEW, & CL Rating Table” was used (See Table Section).
Bioassays on CEW were conducted using a 128-well diet tray assay. one to five second instar CEW larvae were placed in each well (3 mL) of the diet tray that had been previously filled with 1 mL of artificial diet to which 50 μg/cm^2 of the test molecule (dissolved in 50 μL of 90:10 acetone-water mixture) had been applied (to each of eight wells) and then allowed to dry. Trays were covered with a clear self-adhesive cover, and held at 25° C., 14:10 light-dark for five to seven days. Percent mortality was recorded for the larvae in each well; activity in the eight wells was then averaged. The results are indicated in the table entitled “Table ABC: Biological Results” (See Table Section).

As to `Cc1ccc(F)cc1-n1nccc1NC(=O)Nc1ccc(-c2ncn(-c3ccc(OC(F)(F)F)cc3)n2)cc1` [F5, 1-(1-(5-Fluoro-2-methylphenyl)-1H-pyrazol-5-yl)-3-(4-(1-(4-(trifluoromethoxy)phenyl)-1H-1,2,4-triazol-3-yl)phenyl)urea], the mortality at 50 µg/cm2 in series [1] and in series [2] was 50 to 100% each time. In series [3], the mortality at 200 ppm was 0%. The “YFM % Control (or Mortality) rating” value in series [4] is recorded as “A (80-100)”.
With `Cc1ccc(C)c(-n2nccc2NC(=O)Nc2ccc(-c3ncn(-c4ccc(OC(F)(F)C(F)(F)F)cc4)n3)cc2)c1` [F17, 1-(1-(2,5-Dimethylphenyl)-1H-pyrazol-5-yl)-3-(4-(1-(4-(perfluoroethoxy)phenyl)-1H-1,2,4-triazol-3-yl)phenyl)urea], the mortality at 50 µg/cm2 in series [1] and in series [2] was 50 to 100% in each case. Besides, the mortality at 200 ppm in series [3] was 0 to 80%. The “YFM % Control (or Mortality) rating” value in series [4] was “A (80-100)”.
With `Cc1ccc(-n2nccc2NC(=O)Nc2ccc(-c3ncn(-c4ccc(OC(F)(F)F)cc4)n3)cc2)c(C)c1` [F9, 1-(1-(2,4-Dimethylphenyl)-1H-pyrazol-5-yl)-3-(4-(1-(4-(trifluoromethoxy)phenyl)-1H-1,2,4-triazol-3-yl)phenyl)urea], the mortality at 50 µg/cm2 in series [1] and in series [2] was 50 to 100% each time. Also, the mortality at 200 ppm in series [3] lay within 0 to 80%. In addition, the “YFM % Control (or Mortality) rating” value in series [4] was “A (80-100)”.
Take `O=C(Nc1ccc(-c2ncn(-c3ccc(OC(F)(F)C(F)(F)F)cc3)n2)cc1)Nc1ccnn1-c1c(Cl)cccc1Cl` [F14, 1-(1-(2,6-Dichlorophenyl)-1H-pyrazol-5-yl)-3-(4-(1-(4-(perfluoroethoxy)phenyl)-1H-1,2,4-triazol-3-yl)phenyl)urea]: the mortality at 50 µg/cm2 in series [1] and in series [2] was 50 to 100% in each case. In addition, in series [3], the mortality at 200 ppm was 0 to 80%. Moreover, the “YFM % Control (or Mortality) rating” value in series [4] is reported as “A (80-100)”.
For `COc1ccccc1-n1nccc1NC(=O)Nc1ccc(-c2ncn(-c3ccc(OC(F)(F)F)cc3)n2)cc1` [F13, 1-(1-(2-Methoxyphenyl)-1H-pyrazol-5-yl)-3-(4-(1-(4-(trifluoromethoxy)phenyl)-1H-1,2,4-triazol-3-yl)phenyl)urea], the mortality at 50 µg/cm2 in series [1] and in series [2] was 50 to 100% throughout. The mortality at 200 ppm in series [3] amounted to 0%. The “YFM % Control (or Mortality) rating” value in series [4] is listed as “A (80-100)”.
`Cc1ccc(-n2nccc2NC(=O)Nc2ccc(-c3ncn(-c4ccc(OC(F)(F)C(F)(F)F)cc4)n3)cc2)c(C)c1` [F15, 1-(1-(2,4-Dimethylphenyl)-1H-pyrazol-5-yl)-3-(4-(1-(4-(perfluoroethoxy)phenyl)-1H-1,2,4-triazol-3-yl)phenyl)urea]: the mortality at 50 µg/cm2 in series [1] and in series [2] was 50 to 100% each time. Also, the mortality at 200 ppm in series [3] was in the range of 0 to 80%. Besides, the “YFM % Control (or Mortality) rating” value in series [4] is listed as “A (80-100)”.
Regarding `COc1cccc(-c2nonc2NC(=O)Nc2ccc(-c3ncn(-c4ccc(OC(F)(F)F)cc4)n3)cc2)c1` [F41, 1-(4-(3-Methoxyphenyl)-1,2,5-oxadiazol-3-yl)-3-(4-(1-(4-(trifluoromethoxy)phenyl)-1H-1,2,4-triazol-3-yl)phenyl)urea], the mortality at 50 µg/cm2 in series [1], in series [2] and in series [5] was 50 to 100% each time. In addition, in series [4], the “YFM % Control (or Mortality) rating” value is “B (More than 0-Less than 80)”.
For `O=C(Nc1ccc(-c2ncn(-c3ccc(OC(F)(F)C(F)(F)F)cc3)n2)cc1)Nc1nccn1-c1cccc(Cl)c1` [F35, 1-(1-(3-Chlorophenyl)-1H-imidazol-2-yl)-3-(4-(1-(4-(perfluoroethoxy)phenyl)-1H-1,2,4-triazol-3-yl)phenyl)urea], the mortality at 50 µg/cm2 in series [1], in series [2] and in series [5] was 50 to 100% throughout. Further, in series [4], the “YFM % Control (or Mortality) rating” value is reported as “D (No activity noticed in this bioassay)”.

Source of the values: US10212936B2, “Molecules having pesticidal utility, and intermediates, compositions, and processes, related thereto” (priority 2014, dated 2019).
